These are literature values, as cited in US20160335412A1, “SYSTEMS AND METHODS FOR PREDICTING AND ADJUSTING THE DOSAGE OF MEDICINES IN INDIVIDUAL PATIENTS” (priority 2013, published 2016).

SMILES strings stand for the structures.

For `Cn1c(=O)c2[nH]cnc2n(C)c1=O` [theophylline], the “'therapeutic range' of plasma concentrations” value (documented in the literature, lower limit = no response in most patients, upper limit = toxicity in most) is listed as 5-10 micrograms per ml plasma.

With `Cc1cc2c(s1)Nc1ccccc1N=C2N1CCN(C)CC1` [olanzapine], the “'therapeutic range' of plasma drug concentrations” value (has been established, treatment of schizophrenia) was 20 to 80 ng/mL.
